According to the NIST ThermoML archive (doi:10.1016/j.jct.2004.06.009):
± gives the expanded uncertainty stated by the source.

Assay: molar heat capacity at constant pressure
Conditions: 101.33 kPa

Structure (SMILES): CC12CC3CC(C1)CC(C)(C3)C2 [1,3-dimethyladamantane]
- molar heat capacity at constant pressure (164.17 K, Crystal 2): 123.65 ± 1.3 J/K/mol
- molar heat capacity at constant pressure (165.15 K, Crystal 2): 125.01 ± 1.3 J/K/mol
- molar heat capacity at constant pressure (166.14 K, Crystal 2): 125.6 ± 1.3 J/K/mol
- molar heat capacity at constant pressure (167.12 K, Crystal 2): 126.03 ± 1.3 J/K/mol
- molar heat capacity at constant pressure (168.11 K, Crystal 2): 127.28 ± 1.3 J/K/mol
- molar heat capacity at constant pressure (169.09 K, Crystal 2): 127.61 ± 1.3 J/K/mol
- molar heat capacity at constant pressure (170.07 K, Crystal 2): 128.22 ± 1.3 J/K/mol
- molar heat capacity at constant pressure (171.06 K, Crystal 2): 129.42 ± 1.3 J/K/mol
- molar heat capacity at constant pressure (172.04 K, Crystal 2): 130.05 ± 1.3 J/K/mol
- molar heat capacity at constant pressure (173.02 K, Crystal 2): 130.24 ± 1.3 J/K/mol
- molar heat capacity at constant pressure (174 K, Crystal 2): 130.98 ± 1.3 J/K/mol
- molar heat capacity at constant pressure (174.98 K, Crystal 2): 131.94 ± 1.3 J/K/mol
- molar heat capacity at constant pressure (175.95 K, Crystal 2): 133.61 ± 1.3 J/K/mol
- molar heat capacity at constant pressure (177.89 K, Crystal 2): 134.48 ± 1.3 J/K/mol
- molar heat capacity at constant pressure (178.87 K, Crystal 2): 134.87 ± 1.3 J/K/mol
- molar heat capacity at constant pressure (179.85 K, Crystal 2): 135.66 ± 1.3 J/K/mol
- molar heat capacity at constant pressure (180.58 K, Crystal 2): 136.61 ± 1.4 J/K/mol
- molar heat capacity at constant pressure (181.56 K, Crystal 2): 136.89 ± 1.4 J/K/mol
- molar heat capacity at constant pressure (182.53 K, Crystal 2): 137.98 ± 1.4 J/K/mol
- molar heat capacity at constant pressure (183.51 K, Crystal 2): 138.41 ± 1.4 J/K/mol
- molar heat capacity at constant pressure (184.48 K, Crystal 2): 139.16 ± 1.4 J/K/mol
- molar heat capacity at constant pressure (185.46 K, Crystal 2): 140.28 ± 1.4 J/K/mol
- molar heat capacity at constant pressure (186.43 K, Crystal 2): 141.09 ± 1.4 J/K/mol
- molar heat capacity at constant pressure (187.4 K, Crystal 2): 142.02 ± 1.4 J/K/mol
- molar heat capacity at constant pressure (189.35 K, Crystal 2): 143.47 ± 1.4 J/K/mol
- molar heat capacity at constant pressure (190.3 K, Crystal 2): 143.86 ± 1.4 J/K/mol
- molar heat capacity at constant pressure (194.17 K, Crystal 2): 146.97 ± 1.4 J/K/mol
- molar heat capacity at constant pressure (195.13 K, Crystal 2): 148.03 ± 1.4 J/K/mol
- molar heat capacity at constant pressure (197.07 K, Crystal 2): 149.99 ± 1.4 J/K/mol
- molar heat capacity at constant pressure (198.04 K, Crystal 2): 150.21 ± 1.4 J/K/mol
- molar heat capacity at constant pressure (198.92 K, Crystal 2): 151.08 ± 1.4 J/K/mol
- molar heat capacity at constant pressure (199.88 K, Crystal 2): 152.08 ± 1.4 J/K/mol
- molar heat capacity at constant pressure (201.81 K, Crystal 2): 154.34 ± 1.4 J/K/mol
- molar heat capacity at constant pressure (202.78 K, Crystal 2): 154.59 ± 1.4 J/K/mol
- molar heat capacity at constant pressure (203.74 K, Crystal 2): 155.44 ± 1.4 J/K/mol
- molar heat capacity at constant pressure (204.71 K, Crystal 2): 156.27 ± 1.4 J/K/mol
- molar heat capacity at constant pressure (205.67 K, Crystal 2): 156.84 ± 1.4 J/K/mol
- molar heat capacity at constant pressure (206.64 K, Crystal 2): 157.68 ± 1.4 J/K/mol
- molar heat capacity at constant pressure (207.51 K, Crystal 2): 158.4 ± 1.4 J/K/mol
- molar heat capacity at constant pressure (208.55 K, Crystal 2): 158.98 ± 1.4 J/K/mol
- molar heat capacity at constant pressure (209.51 K, Crystal 2): 160.26 ± 1.4 J/K/mol
- molar heat capacity at constant pressure (210.47 K, Crystal 2): 161.38 ± 1.4 J/K/mol
- molar heat capacity at constant pressure (211.43 K, Crystal 2): 162.2 ± 1.4 J/K/mol
- molar heat capacity at constant pressure (212.27 K, Crystal 2): 162.95 ± 1.4 J/K/mol
- molar heat capacity at constant pressure (213.23 K, Crystal 2): 163.97 ± 1.5 J/K/mol
- molar heat capacity at constant pressure (214.19 K, Crystal 2): 164.82 ± 1.5 J/K/mol
- molar heat capacity at constant pressure (215.15 K, Crystal 2): 165.6 ± 1.5 J/K/mol
- molar heat capacity at constant pressure (216.12 K, Crystal 2): 166.3 ± 1.5 J/K/mol
- molar heat capacity at constant pressure (217.08 K, Crystal 2): 166.99 ± 1.5 J/K/mol
- molar heat capacity at constant pressure (218.03 K, Crystal 2): 167.93 ± 1.5 J/K/mol
- molar heat capacity at constant pressure (218.99 K, Crystal 2): 169.35 ± 1.5 J/K/mol
- molar heat capacity at constant pressure (219.95 K, Crystal 2): 170.97 ± 1.5 J/K/mol
- molar heat capacity at constant pressure (225.79 K, Crystal 1): 199.33 ± 1.6 J/K/mol
- molar heat capacity at constant pressure (226.66 K, Crystal 1): 199.97 ± 1.6 J/K/mol
- molar heat capacity at constant pressure (227.53 K, Crystal 1): 201.06 ± 1.6 J/K/mol
- molar heat capacity at constant pressure (228.4 K, Crystal 1): 201.46 ± 1.6 J/K/mol
- molar heat capacity at constant pressure (230.04 K, Crystal 1): 202.98 ± 1.6 J/K/mol
- molar heat capacity at constant pressure (230.88 K, Crystal 1): 203.84 ± 1.9 J/K/mol
- molar heat capacity at constant pressure (230.9 K, Crystal 1): 202.87 ± 1.9 J/K/mol
- molar heat capacity at constant pressure (231.76 K, Crystal 1): 203.35 ± 1.6 J/K/mol
- molar heat capacity at constant pressure (232.42 K, Crystal 1): 205.24 ± 1.6 J/K/mol
- molar heat capacity at constant pressure (233.95 K, Crystal 1): 206.13 ± 1.6 J/K/mol
- molar heat capacity at constant pressure (235.48 K, Crystal 1): 207.28 ± 1.6 J/K/mol
- molar heat capacity at constant pressure (237 K, Crystal 1): 208.26 ± 1.6 J/K/mol
- molar heat capacity at constant pressure (238.51 K, Crystal 1): 209.76 ± 1.6 J/K/mol
- molar heat capacity at constant pressure (240.02 K, Crystal 1): 210.33 ± 1.6 J/K/mol
- molar heat capacity at constant pressure (241.45 K, Crystal 1): 210.84 ± 1.6 J/K/mol
- molar heat capacity at constant pressure (242.96 K, Crystal 1): 212.78 ± 1.6 J/K/mol
- molar heat capacity at constant pressure (244.46 K, Crystal 1): 214.29 ± 1.7 J/K/mol
- molar heat capacity at constant pressure (251.29 K, Liquid): 225.79 ± 1.7 J/K/mol
- molar heat capacity at constant pressure (252.68 K, Liquid): 226.58 ± 1.7 J/K/mol
- molar heat capacity at constant pressure (254.08 K, Liquid): 227.55 ± 1.7 J/K/mol
- molar heat capacity at constant pressure (255.49 K, Liquid): 228.41 ± 1.7 J/K/mol
- molar heat capacity at constant pressure (256.89 K, Liquid): 229.48 ± 1.7 J/K/mol
- molar heat capacity at constant pressure (258.3 K, Liquid): 230.29 ± 1.7 J/K/mol
- molar heat capacity at constant pressure (259.7 K, Liquid): 231 ± 1.7 J/K/mol
- molar heat capacity at constant pressure (261.1 K, Liquid): 232.08 ± 1.7 J/K/mol
- molar heat capacity at constant pressure (262.5 K, Liquid): 232.76 ± 1.7 J/K/mol
- molar heat capacity at constant pressure (263.89 K, Liquid): 233.85 ± 1.7 J/K/mol
- molar heat capacity at constant pressure (265.29 K, Liquid): 235.31 ± 1.7 J/K/mol
- molar heat capacity at constant pressure (266.68 K, Liquid): 235.54 ± 1.7 J/K/mol
- molar heat capacity at constant pressure (268.08 K, Liquid): 236.58 ± 1.8 J/K/mol
- molar heat capacity at constant pressure (269.46 K, Liquid): 237.84 ± 1.8 J/K/mol
- molar heat capacity at constant pressure (270.85 K, Liquid): 239.09 ± 1.8 J/K/mol
- molar heat capacity at constant pressure (272.24 K, Liquid): 239.93 ± 1.8 J/K/mol
- molar heat capacity at constant pressure (273.56 K, Liquid): 240.47 ± 1.8 J/K/mol
- molar heat capacity at constant pressure (274.94 K, Liquid): 241.87 ± 1.8 J/K/mol
- molar heat capacity at constant pressure (277.72 K, Liquid): 243.58 ± 1.8 J/K/mol
- molar heat capacity at constant pressure (279.1 K, Liquid): 244.65 ± 1.8 J/K/mol
- molar heat capacity at constant pressure (280.48 K, Liquid): 245.61 ± 1.8 J/K/mol
- molar heat capacity at constant pressure (281.85 K, Liquid): 246.79 ± 1.8 J/K/mol
- molar heat capacity at constant pressure (283.23 K, Liquid): 247.54 ± 1.8 J/K/mol
- molar heat capacity at constant pressure (284.61 K, Liquid): 248.53 ± 1.8 J/K/mol
- molar heat capacity at constant pressure (285.98 K, Liquid): 249.45 ± 1.8 J/K/mol
- molar heat capacity at constant pressure (287.36 K, Liquid): 250.28 ± 1.8 J/K/mol
- molar heat capacity at constant pressure (288.73 K, Liquid): 251.39 ± 1.8 J/K/mol
- molar heat capacity at constant pressure (290.1 K, Liquid): 252.27 ± 1.8 J/K/mol
- molar heat capacity at constant pressure (291.46 K, Liquid): 253.18 ± 1.8 J/K/mol
- molar heat capacity at constant pressure (292.84 K, Liquid): 254.46 ± 1.8 J/K/mol
- molar heat capacity at constant pressure (294.2 K, Liquid): 254.72 ± 1.8 J/K/mol
- molar heat capacity at constant pressure (295.48 K, Liquid): 256.04 ± 1.8 J/K/mol
- molar heat capacity at constant pressure (296.85 K, Liquid): 256.83 ± 1.8 J/K/mol
- molar heat capacity at constant pressure (298.22 K, Liquid): 258.31 ± 1.8 J/K/mol
- molar heat capacity at constant pressure (299.58 K, Liquid): 259.27 ± 1.8 J/K/mol
- molar heat capacity at constant pressure (300.95 K, Liquid): 260.05 ± 1.8 J/K/mol
- molar heat capacity at constant pressure (302.3 K, Liquid): 260.79 ± 1.8 J/K/mol
- molar heat capacity at constant pressure (303.66 K, Liquid): 261.66 ± 1.9 J/K/mol
- molar heat capacity at constant pressure (306.37 K, Liquid): 263.51 ± 1.9 J/K/mol
- molar heat capacity at constant pressure (307.73 K, Liquid): 264.36 ± 1.9 J/K/mol
- molar heat capacity at constant pressure (309.08 K, Liquid): 265.4 ± 1.9 J/K/mol
- molar heat capacity at constant pressure (310.42 K, Liquid): 266.59 ± 1.9 J/K/mol
- molar heat capacity at constant pressure (311.76 K, Liquid): 267.05 ± 1.9 J/K/mol
- molar heat capacity at constant pressure (313.08 K, Liquid): 268.41 ± 1.9 J/K/mol
- molar heat capacity at constant pressure (314.41 K, Liquid): 269.34 ± 1.9 J/K/mol
- molar heat capacity at constant pressure (315.76 K, Liquid): 270.21 ± 1.9 J/K/mol
- molar heat capacity at constant pressure (317 K, Liquid): 270.69 ± 1.9 J/K/mol
- molar heat capacity at constant pressure (318.33 K, Liquid): 272.36 ± 1.9 J/K/mol
- molar heat capacity at constant pressure (319.67 K, Liquid): 272.93 ± 1.9 J/K/mol
- molar heat capacity at constant pressure (321.02 K, Liquid): 273.59 ± 1.9 J/K/mol
- molar heat capacity at constant pressure (322.36 K, Liquid): 274.52 ± 1.9 J/K/mol
- molar heat capacity at constant pressure (323.7 K, Liquid): 275.69 ± 1.9 J/K/mol
- molar heat capacity at constant pressure (325.04 K, Liquid): 276.85 ± 1.9 J/K/mol
- molar heat capacity at constant pressure (326.38 K, Liquid): 276.96 ± 1.9 J/K/mol
- molar heat capacity at constant pressure (327.72 K, Liquid): 278.17 ± 1.9 J/K/mol
- molar heat capacity at constant pressure (329.06 K, Liquid): 279.49 ± 1.9 J/K/mol
- molar heat capacity at constant pressure (330.4 K, Liquid): 280.25 ± 1.9 J/K/mol
- molar heat capacity at constant pressure (331.73 K, Liquid): 281.52 ± 1.9 J/K/mol
- molar heat capacity at constant pressure (334.39 K, Liquid): 283.43 ± 1.9 J/K/mol
- molar heat capacity at constant pressure (335.72 K, Liquid): 284.46 ± 1.9 J/K/mol
- molar heat capacity at constant pressure (337.04 K, Liquid): 285.09 ± 1.9 J/K/mol
- molar heat capacity at constant pressure (338.23 K, Liquid): 285.9 ± 1.9 J/K/mol
- molar heat capacity at constant pressure (339.56 K, Liquid): 286.67 ± 1.9 J/K/mol
- molar heat capacity at constant pressure (340.88 K, Liquid): 287.92 ± 1.9 J/K/mol
- molar heat capacity at constant pressure (342.17 K, Liquid): 289.16 ± 2 J/K/mol
- molar heat capacity at constant pressure (343.47 K, Liquid): 290.19 ± 2 J/K/mol
- molar heat capacity at constant pressure (344.79 K, Liquid): 291.02 ± 2 J/K/mol
- molar heat capacity at constant pressure (346.09 K, Liquid): 292.18 ± 2 J/K/mol
- molar heat capacity at constant pressure (347.39 K, Liquid): 292.25 ± 2 J/K/mol
- molar heat capacity at constant pressure (348.71 K, Liquid): 293.14 ± 2 J/K/mol
- molar heat capacity at constant pressure (350.02 K, Liquid): 294.11 ± 2 J/K/mol
- molar heat capacity at constant pressure (351.34 K, Liquid): 294.99 ± 2 J/K/mol
- molar heat capacity at constant pressure (352.65 K, Liquid): 295.66 ± 2 J/K/mol
- molar heat capacity at constant pressure (353.96 K, Liquid): 296.46 ± 2 J/K/mol
- molar heat capacity at constant pressure (355.26 K, Liquid): 297.51 ± 2 J/K/mol
- molar heat capacity at constant pressure (356.57 K, Liquid): 298.73 ± 2 J/K/mol
- molar heat capacity at constant pressure (357.86 K, Liquid): 298.97 ± 2 J/K/mol
- molar heat capacity at constant pressure (359 K, Liquid): 299.74 ± 2 J/K/mol
